Tests used:
Test in all cases: relative viability (nuclei count vs DMSO), 5 days (fraction); higher = more cells survive
[1] = compound: Cn1c(Nc2ccc(C(F)(F)F)cc2)nc2cc(Oc3ccnc(-c4ncc(C(F)(F)F)[nH]4)c3)ccc21 [RAF265] + CC1(C)CCC(c2ccc(Cl)cc2)=C(CN2CCN(c3ccc(C(=O)NS(=O)(=O)c4ccc(N[C@H](CCN5CCOCC5)CSc5ccccc5)c(S(=O)(=O)C(F)(F)F)c4)cc3)CC2)C1 [Navitoclax] (partner 0.5 µM)
How it was run: (§1)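 Lung cancer cell lines were pin-tool dosed in 1536-well plates on the day after seeding, with either a lone drug or a fixed anchor-drug dose plus five library-drug doses (not always all listed) in √10 steps. Nuclei were counted on 4× images after 5 days. Relative viability is the ratio of treated-well to vehicle-well nuclei counts, with each value a median of duplicate plates.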

[2] = compound: Cn1c(Nc2ccc(C(F)(F)F)cc2)nc2cc(Oc3ccnc(-c4ncc(C(F)(F)F)[nH]4)c3)ccc21 [RAF265] + C[C@]1(O)C[C@@H](c2nc(-c3ccc4ccc(-c5ccccc5)nc4c3)c3c(N)nccn32)C1 [Linsitinib] (partner 1 µM)
How it was run: as §1

[3] = compound: C1=CC=C2C(=C1)C=CC(=C2SSC3=C(C=CC4=CC=CC=C43)O)O [IPA-3] + C[C@]1(O)C[C@@H](c2nc(-c3ccc4ccc(-c5ccccc5)nc4c3)c3c(N)nccn32)C1 [Linsitinib] (partner 1 µM)
How it was run: as §1

[4] = compound: Cc1ccc(-n2nc(C(C)(C)C)cc2NC(=O)Nc2ccc(OCCN3CCOCC3)c3ccccc23)cc1 [Doramapimod] + O=C(c1cc(Cc2n[nH]c(=O)c3ccccc23)ccc1F)N1CCN(C(=O)C2CC2)CC1 [Olaparib] (partner 8 µM)
How it was run: as §1

UMC-11
relative viability ([1]; first compound 0.01 µM): 0.316 | relative viability ([1]; first compound 0.03162 µM): 0.326 | relative viability ([1]; first compound 0.1 µM): 0.299 | relative viability ([1]; first compound 0.3162 µM): 0.322 | relative viability ([1]; first compound 1 µM): 0.327 | relative viability ([2]; first compound 0.01 µM): 1 | relative viability ([2]; first compound 0.03162 µM): 0.993 | relative viability ([2]; first compound 0.1 µM): 0.953 | relative viability ([2]; first compound 0.3162 µM): 0.986 | relative viability ([2]; first compound 1 µM): 0.973 | relative viability ([3]; first compound 0.2 µM): 1.28 | relative viability ([3]; first compound 0.6325 µM): 0.923 | relative viability ([3]; first compound 2 µM): 1.07 | relative viability ([3]; first compound 6.325 µM): 1.04 | relative viability ([3]; first compound 20 µM): 1.24 | relative viability ([4]; first compound 0.02 µM): 0.353 | relative viability ([4]; first compound 0.06325 µM): 0.348 | relative viability ([4]; first compound 0.2 µM): 0.274 | relative viability ([4]; first compound 0.6325 µM): 0.963 | relative viability ([4]; first compound 2 µM): 0.365

From the supplement of paper PMC10307832
